The source of these data is patent US4128638A, “Nona- and deca-peptide amide derivatives demonstrating high ovulation inducing activity” (ICI Australia Limited, priority 1975, dated 1978).

Where a SMILES comes first, the peptide text is derived from it. [ ]: non-standard residue; d: D form. pGlu = O=C1CC[C@@H](C(=O)O)N1

Assay [1] concerns LH release from the pituitary gland of ovariectomized ewes. As to the kind of experiment: Bioassay for LH release in ovariectomized ewes (plasma LH by radioimmunoassay). The note with it: intravenous injection. The format is in vivo. The method, then: Each ewe was bled twice by jugular venipuncture before administration of the analogue, to establish basal levels of LH in plasma. Following intravenous injection of the appropriate analogue dissolved in saline solution (1 ml), blood samples were collected at intervals over the next three hours, centrifuged and subjected to radioimmunoassay for LH.

Assay [2] concerns androgen-sterilized, constant-oestrous rats. As to the kind of experiment: Ovulation induction in androgen-sterilized, constant-oestrous rats. It is filed as in vivo. The note with it: intravenous dose/rat 0.25 μg. From the text: This activity is exemplified in the table below:

For `CC(C)C[C@H](NC(=O)CCNC(=O)[C@H](Cc1ccc(O)cc1)NC(=O)[C@H](CO)NC(=O)[C@H](Cc1c[nH]c2ccccc12)NC(=O)[C@H](Cc1c[nH]cn1)NC(=O)[C@@H]1CCC(=O)N1)C(=O)N[C@@H](CCCNC(=N)N)C(=O)N1CCC[C@H]1C(=O)NCC(N)=O` [Example 1, L-Pyroglutamyl-L-histidyl-L-tryptophanyl-L-seryl-L-tyrosyl-β-alanyl-L- leucyl-L-arginyl-L-prolyl-glycinamide], the “P* (maximal release of LH by the LHRH analogue at a given dose expressed as a percentage of the LH release by LHRH at the same dose)” value was determined as 97% in assay [1] (dose 2.5 μg) and 108% in assay [1] (dose 25 μg).

Take `CNC(=O)[C@@H]1CCCN1C(=O)[C@H](CCCNC(=N)N)NC(=O)[C@H](CC(C)C)NC(=O)CCNC(=O)[C@H](Cc1ccc(O)cc1)NC(=O)[C@H](CO)NC(=O)[C@H](Cc1c[nH]c2ccccc12)NC(=O)[C@H](Cc1c[nH]cn1)NC(=O)[C@@H]1CCC(=O)N1` [β-Ala^6 -des-Gly^10 -LHRH methylamide, L-Pyroglutamyl-L-histidyl-L-tryptophanyl-L-seryl-L-tyrosyl-β-alanyl-L- leucyl-L-arginyl-L-proline N-methylamide]: the Ovulating rats/group in assay [2] was 3/3. Take `CC(C)C[C@H](NC(=O)CNC(=O)[C@H](Cc1ccc(O)cc1)NC(=O)[C@H](CO)NC(=O)[C@H](Cc1c[nH]c2ccccc12)NC(=O)[C@H](Cc1c[nH]cn1)NC(=O)[C@@H]1CCC(=O)N1)C(=O)N[C@@H](CCCNC(=N)N)C(=O)N1CCC[C@H]1C(=O)N(C)CC(N)=O` [Example 3, L-Pyroglutamyl-L-histidyl-L-tryptophanyl-L-seryl-L-tyrosylglycyl-L-leucyl-L-arginyl-L-prolysarcosinamide]: the entries for the “P* (maximal release of LH by the LHRH analogue at a given dose expressed as a percentage of the LH release by LHRH at the same dose)” value in assay [1] (dose 5 μg) and in assay [1] (dose 50 μg) were 70% and 45%, respectively.

On to `CC(C)C[C@H](NC(=O)CNC(=O)[C@H](Cc1ccc(O)cc1)NC(=O)[C@H](CO)NC(=O)[C@H](Cc1c[nH]c2ccccc12)NC(=O)[C@H](Cc1c[nH]cn1)NC(=O)[C@@H]1CCC(=O)N1)C(=O)N[C@@H](CCCNC(=N)N)C(=O)N1CCC[C@H]1C(=O)NCCC(N)=O` [Example 2, L-Pyroglutamyl-L-histidyl-L-tryptophanyl-L-seryl-L-tyrosylglycyl-L-leucyl-L-arginyl-L-prolyl-β-alaninamide], for which the entries for the “P* (maximal release of LH by the LHRH analogue at a given dose expressed as a percentage of the LH release by LHRH at the same dose)” value in assay [1] (dose 5 μg) and in assay [1] (dose 50 μg) were 12% and 75%, respectively. As for `CCNC(=O)[C@@H]1CCCN1C(=O)[C@H](CCCNC(=N)N)NC(=O)[C@H](CC(C)C)NC(=O)CCNC(=O)[C@H](Cc1ccc(O)cc1)NC(=O)[C@H](CO)NC(=O)[C@H](Cc1c[nH]c2ccccc12)NC(=O)[C@H](Cc1c[nH]cn1)NC(=O)[C@@H]1CCC(=O)N1` [β-Ala^6 des-Gly^10 -FHRH ethylamide, L-Pyroglutamyl-L-histidyl-L-tryptophanyl-L-seryl-L-tyrosyl-β-alanyl-L- leucyl-L-arginyl-L-proline N-ethylamide], the Ovulating rats/group in assay [2] is reported as 3/3. As for `CCCNC(=O)[C@@H]1CCCN1C(=O)[C@H](CCCNC(=N)N)NC(=O)[C@H](CC(C)C)NC(=O)CCNC(=O)[C@H](Cc1ccc(O)cc1)NC(=O)[C@H](CO)NC(=O)[C@H](Cc1c[nH]c2ccccc12)NC(=O)[C@H](Cc1c[nH]cn1)NC(=O)[C@@H]1CCC(=O)N1` [β-Ala^6 -des-Gly^10 -LHRH n-propylamide, L-pyroglutamyl-L-histidyl-L-tryptophanyl-L-seryl-L-tyrosyl-β-alanyl-L- leucyl-L-arginyl-L-proline N-n-propylamide], the Ovulating rats/group in assay [2] is 5/6.

With `CC[C@H](C)[C@H](NC(=O)[C@@H](C)NC(=O)[C@H](Cc1ccc(O)cc1)NC(=O)[C@H](CO)NC(=O)[C@H](Cc1c[nH]c2ccccc12)NC(=O)[C@H](Cc1c[nH]cn1)NC(=O)[C@@H]1CCC(=O)N1)C(=O)N[C@@H](CCCNC(=N)N)C(=O)N1CCC[C@H]1C(=O)NCC(N)=O` [D-Ala^6 -Ile^7 -LHRH, L-Pyroglutamyl-L-histidyl-L-tryptophanyl-L-seryl-L-tyrosyl-D-alanyl-L-isoleucyl-L-arginyl-L-prolyl-glycinamide] ([pGlu]HWSY[dA]IRPG-NH2), in assay [2], the Ovulating rats/group is on record as 3/3.

As to `CC(C)[C@H](NC(=O)[C@@H](C)NC(=O)[C@H](Cc1ccc(O)cc1)NC(=O)[C@H](CO)NC(=O)[C@H](Cc1c[nH]c2ccccc12)NC(=O)[C@H](Cc1c[nH]cn1)NC(=O)[C@@H]1CCC(=O)N1)C(=O)N[C@@H](CCCNC(=N)N)C(=O)N1CCC[C@H]1C(=O)NCC(N)=O` [D-Ala^6 -Val^7 -LHRH, L-pyroglutamyl-L-histidyl-L-tryptophanyl-L-seryl-L-tyrosyl-D-alanyl-L-valyl-L-arginyl-L-prolylglycinamide] ([pGlu]HWSY[dA]VRPG-NH2), the Ovulating rats/group in assay [2] was 3/3.

On to `CC(C)C[C@H](NC(=O)CCNC(=O)[C@H](Cc1ccc(O)cc1)NC(=O)[C@H](CO)NC(=O)[C@H](Cc1c[nH]c2ccccc12)NC(=O)[C@H](Cc1c[nH]cn1)NC(=O)[C@@H]1CCC(=O)N1)C(=O)N[C@@H](CCCNC(=N)N)C(=O)N1CCC[C@H]1C(=O)N1CCCC1` [β-Ala^6 -des-Gly^10 -LHRH pyrrolidide, L-Pyroglutamyl-L-histidyl-L-tryptophanyl-L-seryl-L-tyrosyl-β-alanyl-L- leucyl-L-arginyl-L-proline pyrrolidide], for which the Ovulating rats/group in assay [2] is 3/3.
